Assay results from patent US12226386B2, “Compositions and methods for treating biofilms” (The Regents of the University of California, priority 2018, dated 2025).
Like-named read-outs stand apart in the source and are kept apart here.

How the values were obtained:
[1] = system: S. aureus (MRSA) biofilms; experiment: in vitro sustained inhibition biofilm assay, bacterial; format: cell-based, Staphylococcus aureus; conditions: for activation at 1 %: Staphylococcus aureus, MRSA, 24 h, read-out: Promote B Biofilm
Description: (§1) In vitro biofilm formation was tested using two assays, sustained inhibition and disruption. Both assays assess biofilm formed on polystyrene plates. The first, tests the effects of amino acid solution on a developing biofilm, while the latter tests the effects of the solution on a pre-formed mature biofilm, both compared to media without supplemented amino acids.
(§2) Other amino acids in the blood of animals could combat bacterial and fungal biofilm and therefore may be useful in treating these bacterial and fungal infections that would lie on the external surfaces of infected animals such as humans and could also be used to combat these pathogens on instruments and surfaces that need to be treated. Two types of biofilm assays were performed: a sustained inhibition assay and a disruption assay. The sustained inhibition assay assessed the compound's ability to prevent biofilm development throughout all stages of biofilm formation, while the disruption assay assessed the compound's ability to break up an existing mature biofilm.
(§3) For fungal biofilm assays, all solutions were prepared in RPMI 1640 medium. All bacterial biofilm solutions were prepared in Tryptic Soy Broth (TSB), supplemented with 1% glucose (henceforth referred to as TSB-G). All subsequent procedures were performed in a manner that maintained sterility. A solution of each amino acid to be tested was prepared in weight to volume concentrations ranging from 0.1-5.0%. Amino acids were also tested in combinations. Compound solutions were homogenized with gentle agitation in the dark (4° C., 24 hours) before use.
(§4) Bacterial strains were streaked on Blood Agar plates (5% sheep blood in Tryptic Soy Agar) and incubated at 37° C. for 24 hours. A single colony from each strain to be tested was inoculated in a TSB broth and grown for 12 hours, at 37° C. shaking at 225 rpm. For the bacterial biofilm inhibition assays, 1 μL of saturated overnight cell culture was added to either 80 μL of TSB-G, or TSB-G supplemented with the amino acid compound solution to be tested, in a 384-well plate. The cells were allowed to adhere to the plate for 60 minutes at 37° C. without shaking. The media was carefully aspirated and 80 μL of TSB-G, or TSB-G supplemented with the amino acid compound solution was added to the plate. The plate was further incubated for 24 hours at 37° C. without shaking. Media was carefully aspirated and the biofilm was measured by optical density at 600 nm. Eight or twelve replicates were performed for each tested condition and the reported values are normalized to the control (TSB-G media only). For the bacterial biofilm disruption assays, 80 μL of TSB-G was added to the plate, along with 1 μL of overnight cell culture. The cells were allowed to adhere to the plate for 60 minutes at 37° C. with no shaking. The media was carefully aspirated and 80 μL of TSB-G was added to the plate. The plate was further incubated for 24 hours at 37° C. with no shaking. Media was carefully aspirated from the mature biofilm and 80 μL of TSB-G, or TSB-G supplemented with the amino acid to be tested, was gently added to the plate. The plate was further incubated for 24 hours at 37° C. without shaking. Media was aspirated and the biofilm was measured by optical density at 600 nm. Twelve replicates were performed for each tested condition and the reported values are normalized to the control (TSB-G media only).
For inhibition assay, 1 μl of overnight cell culture was added to either 80 μl of TSB-G, or TSB-G supplemented with the amino acid to be tested, in a 384-well plate. The cells were allowed to adhere to the plate for 60 minutes at 37° C. with no shaking. The media was carefully aspirated and 80 μl of TSB-G, or TSB-G supplemented with amino acid was added to the plate. The plate was further incubated for 24 hours at 37° C. with no shaking. Media was carefully aspirated and the biofilm was measured by optical density at 600 nm. […]

[2] = system: S. aureus (MRSA) biofilms; experiment: in vitro biofilm disruption assay, bacterial; format: cell-based; conditions: Staphylococcus aureus, 24 h
Description: as §1, §2, §3, §4
For disruption assay, 80 μl of TSB-G was added to the plate, along with 1 μl of overnight cell culture. The cells were allowed to adhere to the plate for 60 minutes at 37° C. with no shaking. The media was carefully aspirated and 80 μl of TSB-G was added to the plate. The plate was further incubated for 24 hours at 37° C. with no shaking. Media was carefully aspirated from the mature biofilm and 80 μl of TSB-G, or TSB-G supplemented with the amino acid to be tested, was added drop wise to the plate. The plate was further incubated for 24 hours at 37° C. with no shaking. […]

[3] = system: bacterial biofilms (MRSA); experiment: biofilm assays (sustained inhibition and/or disruption), bacterial; format: cell-based, Staphylococcus aureus; conditions: for effect on MRSA biofilms in inhibition and disruption assays: Tables 4 and 5; for anti-biofilm properties against bacterial biofilms: administered individually at about 0.1 to about 5.0% weight to volume; for anti-biofilm properties against bacterial biofilms / effect on bacterial biofilm growth: in at least one of the two biofilm assays
Description: as §2, §3, §4

[4] = system: fungal biofilms (C. albicans); experiment: biofilm assays (sustained inhibition and/or disruption), fungal; format: cell-based, Candida albicans
Description: Other amino acids in the blood of animals could combat bacterial and fungal biofilm and therefore may be useful in treating these bacterial and fungal infections that would lie on the external surfaces of infected animals such as humans and could also be used to combat these pathogens on instruments and surfaces that need to be treated. Two types of biofilm assays were performed: a sustained inhibition assay and a disruption assay. The sustained inhibition assay assessed the compound's ability to prevent biofilm development throughout all stages of biofilm formation, while the disruption assay assessed the compound's ability to break up an existing mature biofilm. For fungal biofilm assays, all solutions were prepared in RPMI 1640 medium. All bacterial biofilm solutions were prepared in Tryptic Soy Broth (TSB), supplemented with 1% glucose (henceforth referred to as TSB-G). All subsequent procedures were performed in a manner that maintained sterility. […] Amino acids were also tested in combinations. Compound solutions were homogenized with gentle agitation in the dark (4° C., 24 hours) before use. Fungal strains were streaked on Yeast Peptone Dextrose (YPD) agar plates and incubated at 30° C. for 48 hours. A single colony from each strain to be tested was inoculated into YPD broth and grown for 12 hours, at 30° C., shaking at 225 rpm. For the fungal biofilm inhibition assay, 1 μl of saturated overnight cell culture was added to either 80 μL of RPMI-1640 or RPMI-1640 supplemented with the amino acid compound solution to be tested, in a 384-well plate. The cells were allowed to adhere to the plate for 90 minutes at 37° C. shaking at 350 rpm. Loosely bound cells were washed once with phosphate buffered saline (PBS) and 80 μl of RPMI-1640, or RPMI-1640 supplemented with the amino acid compound solution was added to the plate. The plate was further incubated for 24 hours at 37° C. shaking at 350 rpm. Media was carefully aspirated and the biofilm was measured by optical density at 600 nm. Twelve replicates were performed for each tested condition and the reported values are normalized to the control (RPMI-1640 media only). For the fungal biofilm disruption assays, 80 μL of RPMI-1640 was added to the plate, along with 1 μL of overnight cell culture. The cells were allowed to adhere to the plate for 90 minutes at 37° C. shaking at 350 rpm. Loosely bound cells were washed once with PBS and 80 μL of RPMI-1640 was added to the plate. The plate was further incubated for 24 hours at 37° C. shaking at 350 rpm. Media was carefully aspirated from the mature biofilm and 80 μL of RPMI-1640, or RPMI-1640 supplemented with the amino acid compound solution to be tested, was gently added to the plate. The plate was further incubated for 24 hours at 37° C. shaking at 350 rpm. Media was carefully aspirated and the biofilm was measured by optical density at 600 nm. Twelve replicates were performed for each tested condition and the reported values are normalized to the control (RPMI-1640 media only).

[5] = sustained inhibition, S. aureus, 1% amino acid, p<0.001
[6] = disruption, S. aureus, 1% amino acid, p<0.001, read-out: Reduce B Biofilm
[7] = disruption, S. aureus, 1% amino acid, p<0.001, read-out: Promote B Biofilm

In the case of `NC(CCCC(=O)O)C(=O)O` (stereo not drawn) [2 Aminoadipic Acid, 2-aminoadipic acid], the “Reduce B Biofilm” value [1, 5] is reported as “● (a single dot [i.e. ●] signifies minor effect (from about 10 to about 30% change))”, the inhibition at 1 % [2, 6] is reported as 10 to 30% and the “effect on MRSA biofilms in inhibition and disruption assays” value [3] is reported as “both inhibited and disrupted”. The “anti-biofilm properties against bacterial biofilms” value [3] was “reduction by less than twofold”.

With `C[C@H](N)C(=O)O` [Alanine, L-alanine] the activation at 1 % [2, 7] was 10 to 30% and the “effect on bacterial biofilm growth” value [3] was “support (improve) bacterial biofilm growth”.

`N=C(N)NCCC[C@H](N)C(=O)O` [Arginine, L-arginine] was tested, and the activation at 1 % [1] was 10 to 30%, the activation at 1 % ([2]; read-out: Promote B Biofilm) was 10 to 30% and the “effect on bacterial biofilm growth” value [3] was “support (improve) bacterial biofilm growth”.

For `NC(=O)C[C@H](N)C(=O)O` [Asparagine, L-asparagine], the activation at 1 % [1, 5] was 10 to 30% and the “effect on bacterial biofilm growth” value [3] was “support (improve) bacterial biofilm growth”.

For `NCCC(=O)O` [Beta-Alanine, Beta-alanine], the “Reduce B Biofilm” value [1, 5] was “● (a single dot [i.e. ●] signifies minor effect (from about 10 to about 30% change))” and the “anti-biofilm properties against bacterial biofilms” value [3] was “reduction by less than twofold”.

For `NC(=O)NCCC[C@H](N)C(=O)O` [Citrulline, L-citrulline], the activation at 1 % [1] was 10 to 30%, the activation at 1 % ([2]; read-out: Promote B Biofilm) was 10 to 30% and the “effect on bacterial biofilm growth” value [3] was “support (improve) bacterial biofilm growth”.

With `N[C@@H](CCSC[C@H](N)C(=O)O)C(=O)O` [Cystathionine, L-cystathionine] the inhibition at 0.2 % ([2]; disruption, S. aureus, 0.2% amino acid, p<0.001, read-out: Reduce B Biofilm) was 10 to 30%.

In the case of `NCC(=O)O` [Glycine, L-glycine], the activation at 1 % [1, 5] is reported as 10 to 30%, the activation at 1 % [2, 7] is reported as 10 to 30% and the “effect on bacterial biofilm growth” value [3] is reported as “support (improve) bacterial biofilm growth”.

`N[C@@H](CCS)C(=O)O` [Homocysteine, L-homocysteine] was tested, and the “effect on C. albicans biofilms in inhibition and disruption assays” value ([4]; Tables 4 and 5) was “both inhibited and disrupted” and the “anti-biofilm properties against fungal biofilms” value ([4]; administered individually, in at least one of the two biofilm assays) was “reduction by less than two-fold”.

For `O=C(O)[C@@H]1C[C@@H](O)CN1` [Hydroxyproline, Trans-4-hydroxy-L-proline], the “Reduce B Biofilm” value [1, 5] was “● (a single dot [i.e. ●] signifies minor effect (from about 10 to about 30% change))”, the inhibition at 1 % ([2]; read-out: Reduce B Biofilm) was 10 to 30% and the “effect on MRSA biofilms in inhibition and disruption assays” value [3] was “both inhibited and disrupted”. For the same compound, the “anti-biofilm properties against bacterial biofilms” value [3] was “reduction by less than twofold”.

For `CC[C@H](C)[C@H](N)C(=O)O` [Isoleucine, L-isoleucine], the activation at 1 % [2, 7] was 10 to 30% and the “effect on bacterial biofilm growth” value [3] was “support (improve) bacterial biofilm growth”.

With `CC(C)C[C@H](N)C(=O)O` [Leucine, L-leucine] the activation at 1 % [1, 5] was 10 to 30%, the activation at 1 % [2, 7] was 10 to 30% and the “effect on bacterial biofilm growth” value [3] was “support (improve) bacterial biofilm growth”.

With `NCCCC[C@H](N)C(=O)O` [Lysine, L-lysine] the activation at 1 % [1] was 10 to 30%, the activation at 1 % ([2]; read-out: Promote B Biofilm) was 10 to 30% and the “effect on bacterial biofilm growth” value [3] was “support (improve) bacterial biofilm growth”.

`CSCC[C@H](N)C(=O)O` [Methionine, L-methionine] was tested, and the activation at 1 % [1, 5] was 10 to 30% and the “effect on bacterial biofilm growth” value [3] was “support (improve) bacterial biofilm growth”.

In the case of `NCCC[C@H](N)C(=O)O` [Ornithine, L-omithine], the activation at 1 % [1, 5] is reported as 10 to 30%, the activation at 1 % [2, 7] is reported as 10 to 30% and the “effect on bacterial biofilm growth” value [3] is reported as “support (improve) bacterial biofilm growth”.

`N[C@@H](Cc1ccccc1)C(=O)O` [Phenylalanine, L-phenylalanine] was tested, and the activation at 1 % [1, 5] was 10 to 30%, the activation at 1 % [2, 7] was 10 to 30% and the “effect on bacterial biofilm growth” value [3] was “support (improve) bacterial biofilm growth”.

`NCCOP(=O)(O)O` [Phosphoethanolamine, O-phosphoethanolamine] was tested, and the “Reduce B Biofilm” value [1, 5] was “● (a single dot [i.e. ●] signifies minor effect (from about 10 to about 30% change))”, the inhibition at 1 % [2, 6] was 10 to 30% and the “effect on MRSA biofilms in inhibition and disruption assays” value [3] was “both inhibited and disrupted”. The “anti-biofilm properties against bacterial biofilms” value [3] was “reduction by less than twofold”.

For `N[C@@H](CO)C(=O)O` [Serine, L-serine], the activation at 1 % [1, 5] was 10 to 30%, the activation at 1 % [2, 7] was 10 to 30% and the “effect on bacterial biofilm growth” value [3] was “support (improve) bacterial biofilm growth”.

`NCCS(=O)(=O)O` [Taurine, L-taurine] was tested, and the activation at 1 % [1, 5] was 10 to 30%, the activation at 1 % [2, 7] was 10 to 30% and the “effect on bacterial biofilm growth” value [3] was “support (improve) bacterial biofilm growth”.

With `C[C@@H](O)[C@H](N)C(=O)O` [Threonine, L-threonine] the activation at 1 % [1, 5] was 10 to 30% and the “effect on bacterial biofilm growth” value [3] was “support (improve) bacterial biofilm growth”.
